From patent US20250099405A1, “COMPOSITIONS, METHODS, AND DEVELOPMENT OF ARID4B INHIBITORS” (University of Kentucky Research Foundation, priority 2022, published 2025)

Tests used:
Flag-ARID4A = target: T1, Flag-ARID4A (Homo sapiens, UniProt P29374); test: CETSA in cells expressing Flag-ARID4A; assay type: cell-based; settings: 10 μM, 2 h
T1 construct: expressed in transfected cells
T1 sequence (P29374 1-1257): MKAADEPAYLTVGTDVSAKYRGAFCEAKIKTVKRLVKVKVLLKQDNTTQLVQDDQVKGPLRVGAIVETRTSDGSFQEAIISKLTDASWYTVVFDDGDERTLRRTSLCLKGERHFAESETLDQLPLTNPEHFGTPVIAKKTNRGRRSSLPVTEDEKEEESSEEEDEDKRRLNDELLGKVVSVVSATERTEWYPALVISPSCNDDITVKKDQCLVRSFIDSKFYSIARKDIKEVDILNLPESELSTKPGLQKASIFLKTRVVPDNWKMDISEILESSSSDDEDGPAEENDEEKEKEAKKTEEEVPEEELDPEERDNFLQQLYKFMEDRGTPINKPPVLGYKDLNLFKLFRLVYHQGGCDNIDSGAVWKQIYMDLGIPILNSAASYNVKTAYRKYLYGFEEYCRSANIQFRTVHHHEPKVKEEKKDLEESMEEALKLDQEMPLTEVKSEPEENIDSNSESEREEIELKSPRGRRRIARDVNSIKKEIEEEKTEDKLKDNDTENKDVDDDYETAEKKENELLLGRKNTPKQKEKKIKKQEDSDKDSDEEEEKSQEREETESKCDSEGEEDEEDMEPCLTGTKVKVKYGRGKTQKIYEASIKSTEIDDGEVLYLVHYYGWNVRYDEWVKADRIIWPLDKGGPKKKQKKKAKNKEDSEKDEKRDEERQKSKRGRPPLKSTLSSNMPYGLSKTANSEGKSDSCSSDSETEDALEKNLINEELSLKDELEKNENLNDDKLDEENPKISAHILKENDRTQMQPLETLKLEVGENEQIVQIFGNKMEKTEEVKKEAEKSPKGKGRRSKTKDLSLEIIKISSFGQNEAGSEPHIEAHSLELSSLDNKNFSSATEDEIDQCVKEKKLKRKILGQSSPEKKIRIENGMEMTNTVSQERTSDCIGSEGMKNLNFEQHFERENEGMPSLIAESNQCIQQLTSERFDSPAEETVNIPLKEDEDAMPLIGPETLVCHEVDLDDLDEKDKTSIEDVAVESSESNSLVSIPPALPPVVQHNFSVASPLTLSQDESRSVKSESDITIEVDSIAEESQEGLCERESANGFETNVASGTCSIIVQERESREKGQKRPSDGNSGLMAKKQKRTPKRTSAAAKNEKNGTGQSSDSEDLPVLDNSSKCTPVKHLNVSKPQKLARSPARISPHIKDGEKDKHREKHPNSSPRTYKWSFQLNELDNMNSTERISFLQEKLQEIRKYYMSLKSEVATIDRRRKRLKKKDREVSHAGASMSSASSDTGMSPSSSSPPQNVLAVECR
Protocol: (B-C) show cells expressing HA-ARID4B (C) or HA-ARID4BIC (D) treated or not with ARD150 (10 μM) for 2 h were used for CESTA. […] (D-E) show cells expressing HA-ARID4B (D) or Flag-ARID4A (E) treated or not with RWR-18 (10 μM) for 2 h were used for CESTA. […] Data are means±SEM from three experiments. *P<0.05, **P<0.01, ns, not significant.
Using CETSA (cellular thermal shift assay) to examine whether ARD150 or RWR-18 binds to ARID4B, MCF7 cells treated or not with ARD150 or RWR-18 for 2 h were collected, followed by heating at 46, 49, 52, 55, and 58° C. to denature and precipitate ARID4B protein, cell lysis, removal of cell debris and aggregates by centrifugation, and finally detection of remaining thermostable ARID4B protein by western blot. The ARID4B aggregation temperatures without ARD150 were determined to be 49-52° C., but shifted to 52-55° C. after treatment with ARD150 and even more so with RWR-18 (FIG. 15A-D). To determine whether ARD150 and RWR-18 targets the chromodomain of ARID4B, CESTA was performed using chromodomain deletion mutant (ARID4BAC). HEK-293T cells expressing HA-ARID4B or HA-ARID4BAC were treated or not with ARD150 (10 μM) for 2 h and processed for CESTA.

MCF7 xenograft = MCF7 xenograft model; assay type: in vivo, SCID mice; settings: 25 mg/kg once every two days for 24 days
Protocol: The effects of RWR18 on tumor growth was determined using MCF7 xenograft model. When tumor in SCID mice reached 150-200 mm^3, mice were randomized to receive vehicle or RWR18 (25 mg/kg) once every two days for 24 days. […] Bar, 5 mm.
The effects of RWR18 on tumor growth was determined using MCF7 xenograft model. When tumor in SCID mice reaches 150-200 mm^3, mice were randomized to receive vehicle or RWR18 (25 mg/kg) once every two days for 24 days.
The effects of RWR18 on tumor growth was determined using MCF7 xenograft model. When tumor in SCID mice reached 150-200 mm^3, mice were randomized to receive vehicle or RWR18 (25 mg/kg) once every two days for 24 days.

shift of aggregation temperatures of Flag-ARID4A (Flag-ARID4A): no shift was observed
SMILES: O=C(COc1ccc(OCc2ccccc2)cc1)NCCCN1CCOCC1 [RWR-18]
tumor growth (MCF7 xenograft): inhibited tumor growth | percentage of apoptotic cells in tumors (MCF7 xenograft; versus vehicle): increases
